Molecules are shown by their SMILES.

We go through one compound from US20040131619A1, “Thymic atrophy” (DUKE UNIVERSITY, priority 2002, published 2004).

One experiment deals with BALB/c mice. The experiment is described as follows: LIF-induced acute thymic atrophy (metyrapone pre-treatment, adrenalectomy). The format is in vivo. As to conditions: metyrapone 30 mg/kg IP 24 hours before LIF for 3 days; P<0.0094. As for the experimental part:
Normal and adrenalectomized female BALB/c mice (6-8 week) were purchased from The Jackson Laboratory (Bar Harbor, Me.). Animals were housed in specific pathogen free conditions in the Duke University Vivarium Barrier (Durham, N.C.). Mouse handling and experimental procedures were conducted in accordance with AALAC and the Duke University IACUC guidelines for animal care and use.
Animals were treated with either E. coli LPS (Sigma, L2880, St. Louis, Mo.), recombinant murine LIF (R&D Systems, Minneapolis, Minn.), goat IgG (Sigma) or anti-mouse LIF polyclonal goat IgG (R&D Systems) and metyrapone (Sigma). Mouse thymus tissue was excised following euthanasia. Half of each thymus was snap frozen in a dry ice/ETOH bath and stored in liquid nitrogen for RNA extraction and the other half was teased into a single-cell suspension as previously described (Sempowski et al, Journal of Immunology 164:2180 (2000)). […]
Normal and bilaterally adrenalectomized BALB/c mice were treated with LIF (3 μg, 3× a day) or saline for 3 days, and the degree of thymic atrophy assessed. […] To evaluate the status of LIF mRNA in the thymus of LIF injected mice, thymus LIF mRNA levels were determined in control and LIF-treated mice. […]

For experiment [1], the system named is CD3+, CD4/CD8 DP thymocytes. The experiment is described as follows: Murine fetal thymic organ culture (FTOC). The format is cell-based, mouse. As for the experimental part: Phenotypic analysis of thymocyte suspensions was performed on a FACSVantage SE (Becton Dickinson) using fluorescein isothiocyanate-CD3, phycoerythrin-CD4, and phycoerythrin cychrome 5-CD8 (Pharmingen) as previously described (Sempowski et al, Journal of Immunology 164:2180 (2000)). Annexin V-FITC/propidium iodide (PI) staining was used to determine thymocyte apoptosis, necrosis and viability (Coulter).
FTOC were established following the methods described by Vacchio et al. (Journal of Experimental Medicine 185:2033 (1997)). Briefly, thymic lobes were removed from 17 day gestation fetal mice and were cultured in 6-well plates on Gelfoam (Pharmacia & Upjohn, Kalamazoo, Mich.) rafts. Cultures (2-4 lobes/well) were treated with murine LIF (R&D Systems) with or without metyrapone and then harvested by disruption against a 70 μm cell strainer (Becton Dickinson) with a 1 cc plunger (Becton Dickinson). Total thymocyte number per lobe was determined by hemacytometer count with trypan dye exclusion.
To directly determine if LIF can induce intrathymic corticosteroid production and thymocyte depletion, 17 day fetal thymic lobes in FTOC were treated with LIF (10 ng/ml) in the presence or absence of metyrapone (FIG. 4). Absolute numbers of CD3^+, CD4/CD8 DP thymocytes were quantitated as a measure of in vitro LIF-induced thymic atrophy after 72 hours. […]

Consider `CC(C)(C(=O)c1cccnc1)c1cccnc1` [Metyrapone, metyrapone], for which the “inhibition of LIF-induced acute thymic atrophy” value with BALB/c mice amounted to 43%. In experiment [1] (FTOC, 72 hours, agent alone (LIF 10 ng/ml; metyrapone alone), P<0.05), the “depletion of DP thymocytes” value is recorded as 8%. Moreover, in experiment [1] (metyrapone added to LIF-treated (10 ng/ml) FTOC), the “LIF-induced depletion of DP thymocytes” value is listed as “prevented”.
